Test results from publication PMC12663132, “Assessment of cytotoxicity of some synthetic compounds against breast carcinoma spheroids with subsequent analysis of pro-apoptotic and gene expression” (Scientific Reports, 2025).

Tests used:
MCF7 3D spheroids = experiment: Cytotoxicity on MCF7 3D multicellular spheroids (acid phosphatase method); conditions: Homo sapiens; for cytotoxicity at 50 µM: MCF7, 120 h, read-out: Mean of % cytotoxicity ± S.D
Protocol: (§1) Eighty pre-plated synthetic chemical compounds were screened on two human cell lines: MCF7 (ATCC® HTB-22™), a Caucasian breast adenocarcinoma model, and hTERT-RPE-1 (ATCC® CRL-4000™), a normal retinal epithelial cell line immortalized by hTERT telomerase. […] The cells were cultured in DMEM-F12 medium supplemented with L-glutamine and 10% fetal bovine serum, all were purchase from Biowest (Biotechnology company in Nuaillé, France), and maintained in a controlled incubator environment set at 37 °C with 5% CO2 and 95% humidity.
3-D spheroid models were generated from MCF7 cancer and hTERT-RPE1 normal cells were seeded at 10,000 and 50,000 cells/well, respectively, in poly-HEMA coated round bottom plates according to the protocol previously mentioned[44]. The cells were incubated for 5 days to generate the spheroids with diameter of 500 ± 20 µm. The spheroids were imaged using Olympus S100, U-CMAD3 camera connected to Olympus inverted microscope and the diameter of the spheroids was measured using Cellscen-Entry software. Test compounds were added in triplicate to a final concentration of 50 µM and were incubated for 120 h. […] At the end of incubation, cytotoxicity was determined using the acid phosphatase method[45]. After washing twice with 250 μL PBS buffer, 100 μL of 0.1 M sodium citrate, 0.1% Triton X-100, p-nitrophenylphosphate (2 mg/ml) (Pierce Biotechnology Inc., Rockford, IL) was added to each well and incubated for 1.5 h at 37 °C. After incubation, 10 μL of 1N NaOH stop solution was added to each well, and absorbance was read at 405 nm. Cytotoxicity was calculated according to the following equation:

MCF7 = experiment: Cytotoxicity on MCF7 monolayers (MTT assay); conditions: Homo sapiens, MCF7, 72 h, read-out: Mean of % cytotoxicity ± SD
Protocol: as §1
MCF7 cells were seeded in flat-bottom 96-well plates with a concentration of 20,000 cells/well, and were left overnight. The compounds were tested at a final concentration of 50 µM. Doxorubicin was used as a positive control and 0.5% DMSO as a negative control. The treatment duration was 72 h. The cytotoxicity was then assessed using the MTT assay, as described by Mosmann[43].

Structure (SMILES)	cytotoxicity at 50 µM (MCF7 3D spheroids)	cytotoxicity at 50 µM (MCF7)	inhibition at 50 µM (MCF7 3D spheroids; MCF7, read-out: % inhibition 3D)
O=[N+]([O-])c1cc(C(F)(F)F)ccc1-n1ccc(C(F)(F)F)n1 [B11, 1-[2-nitro-4-(trifluoromethyl)phenyl]-3-(trifluoromethyl)-1H-pyrazole]	30.5 ± 0.53%	0%	
COc1cc(-n2c(SC)nc3ccccc3c2=O)c(OC)cc1Cl [A02, 3-(4-chloro-2,5-dimethoxyphenyl)-2-(methylthio)-3,4-dihydroquinazolin-4-one]	67.1 ± 3.3%	94.3 ± 0.06%	
O=[N+]([O-])c1ccc(N2CCC(n3cccc3)CC2)cc1 [A04, 1-(4-nitrophenyl)-4-(1H-pyrrol-1-yl)piperidine]	43.1 ± 0.23%	2.5 ± 0.35%	
CN(C)C=C1Cc2ccccc2C1=O [E05, 2-[(dimethylamino)methylidene]indan-1-one]	41.4 ± 3.6%	47.5 ± 6.2%	
FC(F)(F)c1ccnc(NCc2ccco2)n1 [H11, N2-(2-furylmethyl)-4-(trifluoromethyl)pyrimidin-2-amine]	68.5 ± 0.65%	0%	
COc1cccc2c1C(=O)c1c(O)c3c(c(O)c1C2=O)C[C@@](O)(C(=O)CO)C[C@@H]3O[C@H]1C[C@H](N)[C@H](O)[C@H](C)O1 [doxorubicin, reference compound]		57.6 ± 2.1%	
CC(=O)Cc1nsc(Nc2ccccc2)n1 [B06, 1-(5-anilino-1,2,4-thiadiazol-3-yl)acetone]	20.4 ± 0.35%	14.8 ± 2.6%	
COC(=O)C(C#N)=Cc1cccn1-c1ccc(C(F)(F)F)cc1 [B05, methyl 2-cyano-3-{1-[4-(trifluoromethyl)phenyl]-1H-pyrrol-2-yl}acrylate]	42.1 ± 1.9%	91.3 ± 0.6%	
O=C(NNC(=O)c1ccc(OC(F)(F)F)cc1)c1ccc(Cl)cc1 [C11, N'1-(4-chlorobenzoyl)-4-(trifluoromethoxy)benzene-1-carbohydrazide]	66.5 ± 0.24%	83.1 ± 1.17%	
CCOC(=O)c1ccc(-n2c(=S)[nH]c3ccccc32)cc1 [B02, ethyl 4-(2-thioxo-2,3-dihydro-1H-benzimidazol-1-yl)benzoate]	35.7 ± 1.8%	100 ± 0.003%	
Cc1nn(-c2ccccc2)nc1C(=O)Nc1cc(Cl)cc(Cl)c1 [A03, N4-(3,5-dichlorophenyl)-5-methyl-2-phenyl-2H-1,2,3-triazole-4-carboxamide]	39.1 ± 0.24%	94.2 ± 0.65%	
CS(=O)(=O)CC(N)=S [H05, 2-(methylsulfonyl)ethanethioamide]	19.3 ± 0.5%	24.1 ± 1.17%	
OC(CSc1ccccc1)CN1CCN(c2nccc(C(F)(F)F)n2)CC1 (centres unmarked) [F08, 1-(phenylthio)-3-{4-[4-(trifluoromethyl)pyrimidin-2-yl]piperazino}propan-2-ol]	61.6 ± 0.8%	100 ± 0.003%	
CC(C)(C)SCCNc1nc(Oc2ccc(F)cc2)nc(Oc2ccc(F)cc2)n1 [E03, N2-[2-(tert-butylthio)ethyl]-4,6-di(4-fluorophenoxy)-1,3,5-triazin-2-amine]	41.8 ± 0.6%	80.3 ± 1.5%	
NNC(=O)Cc1ccccc1 [B10, 2-phenylacetohydrazide]	48.2 ± 0.23%	0%	
NS(=O)(=O)c1cccc(NC(=O)Nc2ccccc2)c1 [F11, 3-[(anilinocarbonyl)amino]benzenesulfonamide]	60.4 ± 0.77%	0%	
N#CC1(c2ccccc2)N=C2C=CC=CN2N=C1c1ccccc1 (centres unmarked) [E06, 2,3-diphenyl-2H-pyrido[1,2-b][1,2,4]triazine-2-carbonitrile]	55 ± 1.6%	26.7 ± 1.18%	
CC1(C)CC(=O)C2=C(C1)OC(N)=C(C#N)C2c1ccc(Cl)cc1 (centres unmarked) [E11, 2-amino-4-(4-chlorophenyl)-7,7-dimethyl-5-oxo-5,6,7,8-tetrahydro-4H-chromene-3-carbonitrile]	66.4 ± 1.9%	93.7 ± 1.29%	
O=[N+]([O-])c1ccc2nc(-c3ccccc3)c(-c3ccccc3)nc2c1 [D02, 6-nitro-2,3-diphenylquinoxaline]	-8 ± 0.003%	5.2 ± 0.18%	
Cn1ccnc1SCC(=O)Nc1ccc(C(C)(C)C)cc1 [C04, N1-[4-(tert-butyl)phenyl]-2-[(1-methyl-1H-imidazol-2-yl)thio]acetamide]	28.6 ± 0.76%	14.5 ± 0.58%	
ON=Cc1ccc(-c2ccccc2OC(F)(F)F)o1 [G10, 5-[2-(trifluoromethoxy)phenyl]-2-furaldehyde oxime]	54.4 ± 1.2%	100 ± 0.003%	
COc1c(Cl)cc([N+](=O)[O-])c(OC)c1C(=O)O [D06, 3-chloro-2,6-dimethoxy-5-nitrobenzoic acid]	40.8 ± 2.1%	10.4 ± 0.6%	

Structure (SMILES)	cytotoxicity at 50 µM (MCF7 3D spheroids)	cytotoxicity at 50 µM (MCF7)	inhibition at 50 µM (MCF7 3D spheroids; MCF7, read-out: % inhibition 3D)
Cc1cc(Br)c(NC(=O)C(Cl)Cl)c(Br)c1 [H07, N1-(2,6-dibromo-4-methylphenyl)-2,2dichloroacetamide]	40.6 ± 0.7%	65.3 ± 2.3%	
O=C(NNC1=Nc2ccccc2SC1)c1ccc(F)cc1 [G06, N'-(2H-1,4-benzothiazin-3-yl)-4-fluorobenzohydrazide]	52.3 ± 2.3%	93.4 ± 1.6%	
CCOC(=O)N1CCC(=NNc2ccc([N+](=O)[O-])cc2[N+](=O)[O-])CC1 [H10, ethyl 4-[2-(2,4-dinitrophenyl)hydrazono]piperidine-1-carboxylate]	60.6 ± 1.1%	27.5 ± 1.4%	
O=C(Nc1cc(-c2ccccc2)n[nH]1)C1COc2ccccc2O1 (centres unmarked) [A09, N2-(3-phenyl-1H-pyrazol-5-yl)-2,3-dihydro-1,4-benzodioxine-2-carboxamide]	52.2 ± 1.9%	100 ± 0.003%	
Cc1ccc2[nH]c(SCC(=O)NC3Cc4ccccc4C3)nc2c1 [H03, N-(2,3-dihydro-1H-inden-2-yl)-2-[(5-methyl-1H-benzimidazol-2-yl)thio]acetamide]	15.8 ± 0.11%	88.5 ± 5.8%	
CCOC1=NC(=Cc2[nH]c(OCC)c(CC(=O)OC)c2C(=O)OC)C(C(=O)OC)=C1CC(=O)OC [E02, methyl 5-ethoxy-2-{[5-ethoxy-3-(methoxycarbonyl)-4-(2-methoxy-2-oxoethyl)-2H-pyrrol-2-yliden]methyl}-4-(2-methoxy-2-oxoethyl)-1H-pyrrole-3-carboxylate]	-10.8 ± 0.7%	83.2 ± 1.2%	
CC(=O)Nc1ccc(C=C(C#N)C(N)=O)cc1 [G11, 3-[4-(acetylamino)phenyl]-2-cyanoacrylamide]	60.8 ± 1.23%	15.6 ± 1.7%	
O=C(NCCc1ccncc1)C(F)(F)F [B03, N1-[2-(4-pyridyl)ethyl]-2,2,2-trifluoroacetamide]	25.5 ± 0.11%	0%	
O=C(Nc1cccc(-c2ncon2)c1)C(Cl)(Cl)Cl [D03, 2,2,2-trichloro-N-[3-(1,2,4-oxadiazol-3-yl)phenyl]acetamide]	23.5 ± 0.17%	11.1 ± 0.9%	
Cn1c(SCC(=O)NN2CC(=O)N(c3cccc(Cl)c3)CC2=O)nnc1-c1ccncc1 [G02, N-[4-(3-chlorophenyl)-2,5-dioxopiperazino]-2-{[4-methyl-5-(4-pyridinyl)-4H-1,2,4-triazol-3-yl]sulfanyl}acetamide]	-9.9 ± 0.8%	0%	
O=C(O)c1ccc(-c2ccsc2)cc1 [H06, 4-(3-thienyl)benzoic acid]	26.1 ± 0.4%	7.8 ± 0.23%	
CCCc1cc(=O)oc2cc(OC(C)C(=O)NNS(=O)(=O)c3cccc(C(F)(F)F)c3)ccc12 (centres unmarked) [D11, N'1-{2-[(2-oxo-4-propyl-2H-chromen-7-yl)oxy]propanoyl}-3-(trifluoromethyl)benzene-1-sulfonohydrazide]	40.6 ± 0.11%	35.5 ± 0.35%	
c1cc2c(cc1N=C1SCC3CCCCN13)OCO2 (centres unmarked) [B08, N-hexahydro[1,3]thiazolo[3,4-a]pyridin-3-ylidene-1,3-benzodioxol-5-amine]	53.1 ± 0.6%	8.5 ± 0.47%	
Cc1ccc(OCC(O)CN2CCC(C(N)=O)CC2)c([N+](=O)[O-])c1 (centres unmarked) [D09, 1-[2-hydroxy-3-(4-methyl-2-nitrophenoxy)propyl]piperidine-4-carboxamide]	50 ± 0.35%	7.6 ± 0.2%	
CC(=O)Nc1ccc(NC(=O)c2nccnc2C(=O)O)cn1 [C09, 3-({[6-(acetylamino)-3-pyridinyl]amino}carbonyl)-2-pyrazinecarboxylic acid]	-23.4 ± 0.5%	9.9 ± 1.1%	-23%
COc1ccc(C(=O)NCc2ccco2)cc1OC [C06, N-(2-furylmethyl)-3,4-dimethoxybenzamide]	35.8 ± 0.23%	0%	
O=C1C2CC=CCC2C(=O)N1c1cccc(N2C(=O)C3CC=CCC3C2=O)n1 (centres unmarked) [F04, 2-[6-(1,3-dioxo-2,3,3a,4,7,7a-hexahydro-1H-isoindol-2-yl)-2-pyridyl]-2,3,3a,4,7,7a-hexahydro-1H-isoindole-1,3-dione]	29.8 ± 1.23%	46.9 ± 2.6%	
O=C1C(=C2NC(c3ccccn3)C3C(=O)N(c4ccc(OC(F)(F)F)cc4)C(=O)C23)C(=O)c2ccccc21 (centres unmarked) [F10, 4-(1,3-dioxo-2,3-dihydro-1H-inden-2-yliden)-6-(2-pyridyl)-2-[4-(trifluoromethoxy)phenyl]perhydropyrrolo [3,4-c]pyrrole-1,3-dione]	60.3 ± 1.1%	100 ± 0.003%	
O=C1CNC(=S)N1CCOc1ccc(Cl)cc1 [F05, 3-[2-(4-chlorophenoxy)ethyl]-2-thioxoimidazolidin-4-one]	31.6 ± 0.8%	96.9 ± 1.4%	
COc1cc(C(F)(F)F)nc2ccc(C#CCOC(=O)c3ccccc3)cc12 [G03, 3-[4-methoxy-2-(trifluoromethyl)-6-quinolyl]prop-2-ynyl benzoate]	21.3 ± 0.6%	49.8 ± 2.9%	
Cc1c(C)c(C)c2[nH]c(-c3ccc4c(c3)OCO4)nc2c1C [D04, 2-(1,3-benzodioxol-5-yl)-4,5,6,7-tetramethyl-1H-benzimidazole]	67.9 ± 0.5%	100 ± 0.003%	
